Results from patent US20180003613A1, “Phenotypic High-Content Assay to Evaluate Drugs” (Texas Tech University System, priority 2015, published 2018).
“Also recorded” adds a separate entry of the source.

Columns and labels:
[1] = tested on: AGT-170 cells; assay: Phenotypic cell based AGT/peroxisome co-localization high content assay (Pearson's colocalization coefficient), AGT-170 cells; parameters: species or system Chinese hamster; settings: for % rescue (normalized AGT co-localization): pilot screen, 1536 well, FIG. 3, normalized to AGT-mi (high) and AGT-170 (low) DMSO controls, 4 μM final stated for pilot screen
Experimental: After an overnight incubation time at 37 C, 95% relative humidity and 5% CO2, cells were treated with DMSO or glycerol at different concentrations. After 2 days, cells were fixed with 4% paraformaldehyde, washed 3 times with PBS and permeabilized for 10-30 min with 0.1% Triton X-100 in PBS (PBS-TX). Cells were then stained with a guinea pig anti-AGT “A1” antibody (1:10,000) and a rabbit anti-PMP70 antibody (Ab3421, 1:500) in PBS-TX containing 0.5% goat serum. After 3 PBS washes, anti-rabbit AF488 and anti-guinea pig AF546 secondary antibodies (both at 1:10,000), as well as Hoeschst at 10 ug/mL were added to each well. Images were acquired with a 20× objective on the CellInsight (Cellomics). Puncta labeled with the anti-PMP70 antibody (labeling peroxisomes) and the anti-AGT antibody are detected in the green and red channels, respectively. Colocalization of the two populations of puncta was determined via calculation of the Pearson Colocalization Coefficient using Cellomics' “Colocalization” BioApplication. Here, miAGT cells are non-mutant AGT expressing CHO cells while the mutant AGT cells are references as 170s. The concentration of glycerol used in […] is listed in both the bar graph and the scatterplot. 4 replicates per condition were done and Z′ and S:B are calculated from the untreated AGT 170 cells versus the miAGT cells.
384-well plate assay protocol. Briefly, AGT-170 cells (and AGTmi cells that serve as a positive control) were seeded in black, square, IQ™ 100 μ384-well plates (Aurora, Brooks, Chelmsford, Mass.) at 500 cells/wells using a Flying Reagent Dispenser (FRD, Beckman Coulter, Brea, Calif.). After an overnight incubation at 37° C., 95% relative humidity (RH) and 5% CO2, cells were treated with 100 nL test compounds or DMSO for the positive and negative wells with a pintool transfer unit (GNF). Plates were then placed in an incubator for three days at 37° C., 95% RH and 5% CO2, immunostained and acquired on a high content imager as described below.
Immunostaining. Following treatment and incubation as described above, cells were fixed by the addition of 2× fixation solution (8% paraformaldehyde-PFA) using a FRD. Plates were then washed 3 times with PBS on the Squirt microplate washer using a 12° nozzle tilt and 15 PSI pressure according to the user's manual for washing normal binding cells in 384-well plate format (Brook, Chelmsford, Mass.). Cells were then permeabilized by dispensing a solution of 0.1% Triton X-100 in PBS (PBS-TX) and incubated for 10-30 minutes. Next, cells were stained with a guinea pig anti-AGT “A1” antibody (Danpure's Lab, London, UK; 1:10,000) and a rabbit anti-PMP70 antibody (Abcam, Cambridge, Mass.; 1:500) in PBS-TX containing 0.5% goat serum. After 3 PBS washes, anti-rabbit AF488 and anti-guinea pig AF546 secondary antibodies (Molecular Probes, Eugene, Oreg.; both at 1:10,000), as well as Hoechst at 10 μg/mL were added to each well. Thirty minutes later, plates were washed 3 times, filled with 50 μL/well of PBS and sealed with black tape.
Image acquisition and analysis. Plates were read and images acquired with the CellInsight high content reader (Thermo Fisher Scientific, Pittsburgh, Pa.) using a 20× objective. A detailed and illustrated description of the image acquisition and analysis is presented FIGS. 1A to 1H. A maximum of 9 fields of view per well were acquired, yielding an average of ≈700 cells detected. The nuclear stain channel (Hoechst, 386 nm, 9.8 milliseconds exposure time) was used to focus on the cell layer. Puncta labeled with the anti-PMP70 antibody (labeling peroxisomes) and the anti-AGT antibody were acquired in the green (485 nm, 40 milliseconds exposure) and red (549 nm, 15 milliseconds exposure) channels, respectively. Nuclei were detected using the fixed threshold method with an intensity threshold of 300. Next, a cytoplasmic region of interest was created around each nucleus by creating a ring with a distance of 1 pixel from the nucleus and a width of 8 pixels. […]

[2] = tested on: CHO cells; assay: Cytotoxicity / cell viability seen in the high content assay (HCS images); format: cell-based, Chinese hamster
Experimental: In order to assess the ability to induce and detect an increase in the Pearson's colocalization coefficient, both AGTmi and AGT-170 cells were treated with glycerol, which is a viscous polyol compound known to enhance the stability of proteins in solution. This co-solvent shifts the native protein to more compact states and inhibits protein-protein aggregation while proteins are being refolded during biological synthesis. […] Concentrations of glycerol higher than 5% affected cell viability and prevented accurate determination of the Pearson's colocalization coefficient; for these reasons, they were avoided. To probe the robustness of the assay, the glycerol titration assay was repeated on two separate plates. […] The Z′-factor, a statistical measurement indicative of HTS-readiness, was calculated between the AGT-170 cells in absence and presence of 5% glycerol and found to be 0.58, and at 0.81 between untreated AGT-170 and AGTmi cells.
Fresh powders, solvated in DMSO, were obtained and reformatted as ten point three fold serial dilutions and proceeded to test them in the same assay as described above. […] All data was imported into the Scripps database, assessed for quality control in terms of Z′, S:B and CV (i.e., quality controlled), and curves were fitted using a 4-parameter algorithm without constraining the top or bottom asymptote. […]

[3] = tested on: AGTmi cells; assay: AGT/peroxisome co-localization high content assay, AGTmi cells, glycerol treatment; format: cell-based, Chinese hamster
Experimental: After an overnight incubation time at 37 C, 95% relative humidity and 5% CO2, cells were treated with DMSO or glycerol at different concentrations. After 2 days, cells were fixed with 4% paraformaldehyde, washed 3 times with PBS and permeabilized for 10-30 min with 0.1% Triton X-100 in PBS (PBS-TX). Cells were then stained with a guinea pig anti-AGT “A1” antibody (1:10,000) and a rabbit anti-PMP70 antibody (Ab3421, 1:500) in PBS-TX containing 0.5% goat serum. After 3 PBS washes, anti-rabbit AF488 and anti-guinea pig AF546 secondary antibodies (both at 1:10,000), as well as Hoeschst at 10 ug/mL were added to each well. Images were acquired with a 20× objective on the CellInsight (Cellomics). Puncta labeled with the anti-PMP70 antibody (labeling peroxisomes) and the anti-AGT antibody are detected in the green and red channels, respectively. Colocalization of the two populations of puncta was determined via calculation of the Pearson Colocalization Coefficient using Cellomics' “Colocalization” BioApplication. […] 4 replicates per condition were done and Z′ and S:B are calculated from the untreated AGT 170 cells versus the miAGT cells.
Image acquisition and analysis. Plates were read and images acquired with the CellInsight high content reader (Thermo Fisher Scientific, Pittsburgh, Pa.) using a 20× objective. […]

[4] = fresh powders, ten point three fold serial dilutions, 25 uM highest concentration, FIG. 5

In the case of 26-Deoxymonensin B, the “% rescue (normalized AGT co-localization)” value [1] was 73%.

`CC(NCCC(c1ccccc1)c1ccccc1)c1ccccc1` (stereo not shown) [Fendiline] was tested, and the “Toxicity by eye when observing HCS images” value ([2]; concentration response test, FIG. 5 and FIG. 6) was “appears toxic at higher concentrations; also recorded: appeared toxic at 10 uM” and the “Activity in concentration response curves” value [1, 4] was “inactive; also recorded: did not show significant activity”.

`CC[C@@]1([C@@H]2O[C@@H]([C@H]3O[C@@](O)(CO)[C@H](C)C[C@@H]3C)C[C@@H]2C)CC[C@H]([C@]2(C)CC[C@]3(C[C@H](O)[C@@H](C)[C@@H]([C@@H](C)[C@@H](OC)[C@H](C)C(=O)O)O3)O2)O1` [Monensin] was tested, and the “EC50 potency from concentration response curves” value [1, 4] was “low micromolar potency” and the “% rescue (normalized AGT co-localization)” value [1] was 84%.

`OCC(O)CO` [glycerol] was tested, and the “Concentration that affected cell viability” value ([2]; glycerol titration, prevented accurate determination of the Pearson's coefficient) was “higher than 5%”, the “fold increase of Pearson's values” [3] was about 1.10 fold and the “Effect on AGT mutant (colocalization with peroxisomes)” value ([1]; 1536-well plates, 2 days treatment, FIG. 1) was “stabilizing the AGT mutant”. For the same molecule, the “fold increase of Pearson's colocalization coefficient” value ([1]; AGT-170 cells, glycerol treatment) was 1.91 fold and the “Pearson's colocalization coefficient after glycerol treatment” value ([1]; AGT-170 cells, increasing concentrations of glycerol, n=4, untreated 0.41±0.01) was 0.80±0.04.
